Values quoted from earlier work in PubChem BioAssay AID1259409 (Chemical Carcinogenesis Research Information System (CCRIS), 2018).

Test system: rodent chemically induced tumor inhibition, incidence and multiplicity
Assay: CCRIS tumor inhibitor studies

**Q.** Which “tumour outcome (control, treated, inhibition, significance)” value (Carcinogen: DIMETHYLNITROSAMINE [62-75-9], Dose [Inhibitor]: 100 MG/KG BW FOR 3 MO ADMINISTERED BEFORE CARCINOGEN (STUDY DURATION: 12 MO), Route [Inhibitor]: DIET, Species: MOUSE, Strain/Sex: B6C3F1/MALE, Target Tissue: Type of Lesion: LIVER: TUMOR, Dose [Carcinogen]: 5 MG/KG BW 3 X A WK FOR 2 MO, THEN 10 MG/KG 2 X WK FOR 4 WKS AFTER 3 MO OF GSPE) does the source give for `COc1c(O)cc(C2Oc3c(c(O)cc(O)c3[C@H]3c4c(O)cc(O)cc4O[C@H](c4ccc(O)cc4)[C@@H]3O)C[C@H]2O)cc1O` (stereo partly drawn) here?
**A.** Its value is 85% (dmn); 60% gspe before dmn, 29%, not calculated.

**Q.** And the “tumour outcome (control, treated, inhibition, significance)” value (Carcinogen: DIMETHYLNITROSAMINE [62-75-9], Dose [Inhibitor]: 100 MG/KG BW FOR 9 MO AFTER CARCINOGEN TREATMENT (STUDY DURATION: 12 MO), Route [Inhibitor]: DIET, Species: MOUSE, Strain/Sex: B6C3F1/MALE, Target Tissue: Type of Lesion: LIVER: TUMOR, Dose [Carcinogen]: 5 MG/KG BW 3 X A WK FOR 2 MO, THEN 10 MG/KG 2 X WK FOR 1 MO)?
**A.** The value was 85% (dmn); 55% gspe, 35%, not calculated.

**Q.** What about the “tumour outcome (control, treated, inhibition, significance)” value (Carcinogen: DIMETHYLNITROSAMINE [62-75-9], Dose [Inhibitor]: 100 MG/KG BW FOR DURATION OF EXPERIMENT (STUDY DURATION: 12 MO), Route [Inhibitor]: DIET, Species: MOUSE, Strain/Sex: B6C3F1/MALE, Target Tissue: Type of Lesion: LIVER: TUMOR, Dose [Carcinogen]: 5 MG/KG BW 3 X A WK FOR 2 MO, THEN 10 MG/KG 2 X WK FOR 4 WKS) of the same molecule?
**A.** Its value is 85% (dmn); 45% gspe, 47%, not calculated.

**Q.** With `CCCCNC(=O)\C=C(C)/C=C/C=C(C)/C=C/C1=C(C)CCCC1(C)C` as the molecule, how does the “tumour outcome (control, treated, inhibition, significance)” value (Carcinogen: N-BUTYL-N-(4-HYDROXYBUTYL)NITROSAMINE, 3817-11-6, Dose [Inhibitor]: 1.5 MMOL/KG IN DIET FOR 133 D STARTING 1 WK AFTER THE LAST CARCINOGEN DOSE ( STUDY DURATION: 190 D), Route [Inhibitor]: ORAL, Species: MOUSE, Strain/Sex: BDF/MALE, Target Tissue: Type of Lesion: URINARY BLADDER: TRANSITIONAL CELL CARCINOMA, Dose [Carcinogen]: 7.5 MG 1/WK FOR 8 WK, Promoter: NONE USED) read?
**A.** The value was 21/100 (21%), 19/97 (20%), 5%, not significant.

**Q.** With `C[C@@H]1O[C@@H](OC[C@H]2O[C@@H](Oc3c(-c4ccc(O)c(O)c4)oc4cc(O)cc(O)c4c3=O)[C@H](O)[C@@H](O)[C@@H]2O)[C@H](O)[C@H](O)[C@H]1O` as the molecule, how does the “tumour outcome (control, treated, inhibition, significance)” value (Carcinogen: 7,12-DIMETHYLBENZ[A]ANTHRACENE, 57-97-6, Dose [Inhibitor]: 0, 0.2 ML OF A 1% SOLUTION 1/D FOR 2 WK APPLIED 5 MIN POST EACH CARCINOGEN DOSE THEN 1/D FOR 4 WK DURING PROMOTION STAGE, Route [Inhibitor]: DERMAL, Species: MOUSE, Strain/Sex: SWISS/MALE, Target Tissue: Type of Lesion: SKIN: PAPILLOMA, Dose [Carcinogen]: 0.2 ML OF A 0.24% SOLUTION IN DMSO 1/D FOR 2 WK, Promoter: CROTON OIL, 8001-28-3) read?
**A.** The value was 23/23 (100%), 14/24 (58%), 42%, not calculated.

**Q.** And the “tumour outcome (control, treated, inhibition, significance)” value (Carcinogen: 7,12-DIMETHYLBENZ[A]ANTHRACENE, 57-97-6, Dose [Inhibitor]: 0, 0.2 ML OF A 1% SOLUTION 1/D FOR 2 WK APPLIED 5 MIN PRIOR TO EACH CARCINOGEN DOSE (STUDY DURATION: 20 WK), Route [Inhibitor]: DERMAL, Species: MOUSE, Strain/Sex: SWISS/MALE, Target Tissue: Type of Lesion: SKIN: PAPILLOMA, Dose [Carcinogen]: 0.2 ML OF A 0.24% SOLUTION IN DMSO 1/D FOR 2 WK, Promoter: CROTON OIL, 8001-28-3)?
**A.** The value was 23/23 (100%), 21/23 (91%), 9%, not calculated.

**Q.** And the “tumour outcome (control, treated, inhibition, significance)” value (Carcinogen: AZOXYMETHANE, 25843-45-2, Dose [Inhibitor]: 0, 1% IN DIET FOR DURATION OF STUDY (STUDY DURATION: 48 WK), Route [Inhibitor]: ORAL, Species: MOUSE, Strain/Sex: CF-1/FEMALE, Target Tissue: Type of Lesion: COLON: TUMOR, Dose [Carcinogen]: 10 MG/KG BW 3 TIMES, Promoter: NONE USED)?
**A.** The value was 8/32 (25%), 9/35 (26%), -4%, not significant.

**Q.** And the “tumour outcome (control, treated, inhibition, significance)” value (Carcinogen: AZOXYMETHANE, 25843-45-2, Dose [Inhibitor]: 0, 4% IN DIET FOR DURATION OF STUDY (STUDY DURATION: 48 WK), Route [Inhibitor]: ORAL, Species: MOUSE, Strain/Sex: CF-1/FEMALE, Target Tissue: Type of Lesion: COLON: TUMOR, Dose [Carcinogen]: 10 MG/KG BW 3 TIMES, Promoter: NONE USED)?
**A.** Its value is 8/32 (25%), 3/31 (10%), 60%, not significant.

**Q.** With `CC1(C)[C@H](O)CC[C@]2(C)C3=CC[C@@]4(C)[C@@H]5C[C@](C)(CO)CC[C@]5(C)CC[C@]4(C)C3=CC[C@@H]12` as the molecule, how does the “tumour outcome (control, treated, inhibition, significance)” value (Carcinogen: 7,12-DIMETHYLBENZ[A]ANTHRACENE, 57-97-6, Dose [Inhibitor]: 0, 2 UMOL IN 100 µL ACETONE:DMSO (9:1) 2/WK FOR 17 WK APPLIED 30 MIN PRIOR TO EACH PROMOTER DOSE (STUDY DURATION: 18 WK), Route [Inhibitor]: DERMAL, Species: MOUSE, Strain/Sex: ICR/FEMALE, Target Tissue: Type of Lesion: SKIN: PAPILLOMA, Dose [Carcinogen]: 50 UG IN 100 µL ACETONE ONCE, Promoter: 12-O-TETRADECANOYLPHORBOL-13-ACETATE, 16561-29-8) read?
**A.** The value was 87%, 13%, 85%, not calculated.

**Q.** Which “tumour outcome (control, treated, inhibition, significance)” value (Carcinogen: 7,12-DIMETHYLBENZ[A]ANTHRACENE, 57-97-6, Dose [Inhibitor]: 0, 0.2 G/KG OF DIET OF 50:50 MIXTURE OF KAHWEOL AND CAFESTOL FOR 14 WK BEGINNING 1 WK PRIOR TO CARCINOGEN TREATMENT (STU, Route [Inhibitor]: ORAL, Species: HAMSTER, Strain/Sex: SYRIAN/FEMALE, Target Tissue: Type of Lesion: BUCCAL POUCH: TUMOR, Dose [Carcinogen]: 0.5% SOLUTION IN MINERAL OIL PAINTED ON LEFT BUCCAL POUCH 3/WK FOR 13 WK, Promoter: NONE USED) does the source give for `C[C@@]12C=Cc3occc3[C@H]1CC[C@@]13C[C@@H](CC[C@H]12)[C@@](O)(CO)C3` here?
**A.** Its value is 14/14 (100%), 14/14 (100%), 0%, not significant.

**Q.** What about the “tumour outcome (control, treated, inhibition, significance)” value (Carcinogen: 7,12-DIMETHYLBENZ[A]ANTHRACENE, 57-97-6, Dose [Inhibitor]: 0, 2 G/KG OF DIET OF 50:50 MIXTURE OF KAHWEOL AND CAFESTOL FOR 14 WK BEGINNING 1 WK PRIOR TO CARCINOGEN TREATMENT (STUDY, Route [Inhibitor]: ORAL, Species: HAMSTER, Strain/Sex: SYRIAN/FEMALE, Target Tissue: Type of Lesion: BUCCAL POUCH: TUMOR, Dose [Carcinogen]: 0.5% SOLUTION IN MINERAL OIL PAINTED ON LEFT BUCCAL POUCH 3/WK FOR 13 WK, Promoter: NONE USED) of the same molecule?
**A.** Its value is 14/14 (100%), 14/15 (93%), 7%, not significant.

**Q.** Which results are given for `CS(=O)(=O)c1ccc(C2=C(c3ccccc3)C(=O)OC2)cc1`?
**A.** tumour outcome (control, treated, inhibition, significance) (Carcinogen: N-METHYL-N-NITROSOUREA, 684-93-5, Dose [Inhibitor]: 0.001% IN DIET, BEGINNING 7 D BEFORE FIRST CARCINOGEN DOSE FOR 19 WK (STUDY DURATION: 19 WK), Route [Inhibitor]: ORAL, Species: RAT, Strain/Sex: SPRAGUE-DAWLEY/FEMALE, Target Tissue: Type of Lesion: MAMMARY GLAND: TUMOR, Dose [Carcinogen]: 50 MG/KG 1 WK FOR 2 WK): 16/23 (69.6%), 10/24 (41.7%), 40%, not significant; tumour outcome (control, treated, inhibition, significance) (Carcinogen: N-METHYL-N-NITROSOUREA, 684-93-5, Dose [Inhibitor]: 0.005% IN DIET, BEGINNING 7 D BEFORE FIRST CARCINOGEN DOSE FOR 19 WK (STUDY DURATION: 19 WK), Route [Inhibitor]: ORAL, Species: RAT, Strain/Sex: SPRAGUE-DAWLEY/FEMALE, Target Tissue: Type of Lesion: MAMMARY GLAND: TUMOR, Dose [Carcinogen]: 50 MG/KG 1 WK FOR 2 WK): 16/23 (69.6%), 10/25 (40%), 42.5%, p< 0.05
